In ChEMBL document CHEMBL5505969, “Discovery of new piperaquine hybrid analogs linked by triazolopyrimidine and pyrazolopyrimidine scaffolds with antiplasmodial and transmission blocking activities” (Eur J Med Chem, 2024):
Activity calls are given as the source filed them. The calls are words filed in the database; no cut-off is given here.

Key:
Plasmodium falciparum [1] = assay: Resistance index, ratio of IC50 for antiplasmodial activity against sorbitol-synchronized ring stage chloroquine, mefloquine and pyrimethamine resistant Plasmodium falciparum Dd2 harboring N86F/M74I/ N75E/[…] mutation in MDR1 gene, N51I/C59R/S108N mutation in DHFR gene and S436F/A437G/A613S mutation in DHPS gene infected in erythrocytes to IC50 for antiplasmodial activity against sorbitol-synchronized ring stage chloroquine sensitive Plasmodium falciparum 3D7 infected in erythrocytes; format: functional
[2] = Cytotoxicity against human HepG2 cells assessed as reduction in cell viability incubated for 72 hrs by MTT assay; format: toxicity, cell-based
Plasmodium falciparum [3] = assay: Resistance index, ratio of IC50 for antiplasmodial activity against sorbitol-synchronized ring stage atovaquone resistant Plasmodium falciparum TM90C6B harboring Y268S mutation in CYTB gene, Y184F mutation in MDR1 gene, N51I/C59R/S108N mutation in DHFR gene and S436F/A437G/A581G mutation in DHPS gene infected in erythrocytes to IC50 for antiplasmodial activity against sorbitol-synchronized ring stage chloroquine sensitive Plasmodium falciparum 3D7 infected in erythrocytes; format: functional
Plasmodium falciparum [4] = assay: Antiplasmodial activity against sorbitol-synchronized ring stage 2-(1,1-difluoroethyl)-5-methyl-N-(4-(pentafluoro-l6-sulfaneyl)phenyl)-[1,2,4]triazolo[1,5-a]pyrimidin-7-amine resistant Plasmodium falciparum Dd2 infected in erythrocytes measured after 48 hrs by SYBR green dye based fluorescence analysis; format: functional, organism-based; details: Dd2, Erythrocyte
Plasmodium falciparum [5] = assay: Antiplasmodial activity against sorbitol-synchronized ring stage atovaquone resistant Plasmodium falciparum TM90C6B harboring Y268S mutation in CYTB gene, Y184F mutation in MDR1 gene, N51I/C59R/S108N mutation in DHFR gene and S436F/A437G/A581G mutation in DHPS gene infected in erythrocytes measured after 48 hrs by SYBR green dye based fluorescence analysis; format: functional, organism-based; details: Erythrocyte
Plasmodium falciparum [6] = assay: Antiplasmodial activity against sorbitol-synchronized ring stage chloroquine, mefloquine and pyrimethamine resistant Plasmodium falciparum Dd2 harboring N86F/M74I/ N75E/[…] mutation in MDR1 gene, N51I/C59R/S108N mutation in DHFR gene and S436F/A437G/A613S mutation in DHPS gene infected in erythrocytes measured after 48 hrs by SYBR green dye based fluorescence analysis; format: functional, organism-based; details: Dd2, Erythrocyte
[7] = Selectivity index, ratio of CC50 for human HepG2 cells to IC50 for antiplasmodial activity against sorbitol-synchronized ring stage chloroquine sensitive Plasmodium falciparum 3D7 infected in erythrocytes; format: toxicity, cell-based; details: Plasmodium falciparum 3D7 in erythrocytes, read-out: Ratio CC50/IC50
Plasmodium falciparum [8] = assay: Resistance index, ratio of IC50 for antiplasmodial activity against sorbitol-synchronized ring stage MMV848 resistant Plasmodium falciparum 3D7 infected in erythrocytes to IC50 for antiplasmodial activity against sorbitol-synchronized ring stage chloroquine sensitive Plasmodium falciparum 3D7 infected in erythrocytes; format: functional
Plasmodium falciparum [9] = assay: Antiplasmodial activity against sorbitol-synchronized ring stage chloroquine resistant Plasmodium falciparum K1 infected in erythrocytes measured after 48 hrs by SYBR green dye based fluorescence analysis; format: functional, organism-based; details: K1, Erythrocyte
[10] = target: T1, Dihydroorotate dehydrogenase (quinone), mitochondrial (Plasmodium falciparum (isolate 3D7)) (UniProt Q08210); assay: Inhibition of Plasmodium falciparum DHODH at 100 uM measured over 60 secs by DCIP dye based colorimetric assay relative to control; details: time > 60.0 sec
T1 sequence (whole entry): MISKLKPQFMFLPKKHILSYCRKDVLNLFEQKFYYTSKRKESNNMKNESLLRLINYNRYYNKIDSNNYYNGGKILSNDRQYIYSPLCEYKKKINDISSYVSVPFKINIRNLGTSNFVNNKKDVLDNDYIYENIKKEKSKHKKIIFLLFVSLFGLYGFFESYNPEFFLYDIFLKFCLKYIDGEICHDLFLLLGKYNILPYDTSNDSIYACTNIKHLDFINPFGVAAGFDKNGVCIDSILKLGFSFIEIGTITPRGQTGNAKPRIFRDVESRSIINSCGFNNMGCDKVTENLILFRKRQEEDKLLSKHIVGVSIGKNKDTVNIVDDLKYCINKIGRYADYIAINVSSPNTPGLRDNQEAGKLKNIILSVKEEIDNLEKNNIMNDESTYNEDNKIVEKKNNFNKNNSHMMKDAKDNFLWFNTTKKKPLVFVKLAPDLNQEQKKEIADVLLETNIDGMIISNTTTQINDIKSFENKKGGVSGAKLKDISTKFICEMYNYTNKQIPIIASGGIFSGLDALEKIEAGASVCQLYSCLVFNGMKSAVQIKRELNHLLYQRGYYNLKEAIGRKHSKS

Plasmodium falciparum [11] = assay: Antiplasmodial activity against GFP expressing sorbitol-synchronized ring stage laboratory adapted Plasmodium falciparum 3D7HT assessed as reduction in infectivity by measuring inhibition of gametocyte formation at 10 uM treated for 72 hrs followed by replacement with fresh media without compound for 24 hrs and measured on day 4 by giemsa staining based microscopic analysis; format: functional
[12] = target: T1, Dihydroorotate dehydrogenase (quinone), mitochondrial (Plasmodium falciparum (isolate 3D7)); assay: Inhibition of Plasmodium falciparum DHODH assessed as residual activity at 100 uM measured over 60 secs by DCIP dye based colorimetric assay relative to control; details: time > 60.0 sec
Plasmodium berghei = assay: Antiplasmodial activity against GFP-expressing Plasmodium berghei HSP70 infected in CD-1 mouse assessed as inhibition of ookinete formation at 10 uM measured after 22 hrs by giemsa staining based microscopic analysis; format: functional; details: read-out: INH
Plasmodium falciparum [13] = assay: Antiplasmodial activity against sorbitol-synchronized ring stage chloroquine sensitive Plasmodium falciparum 3D7 infected in erythrocytes measured after 48 hrs by SYBR green dye based fluorescence analysis; format: functional, organism-based; details: 3D7, Erythrocyte
Plasmodium falciparum [14] = assay: Antiplasmodial activity against sorbitol-synchronized ring stage MMV848 resistant Plasmodium falciparum 3D7 infected in erythrocytes measured after 48 hrs by SYBR green dye based fluorescence analysis; format: functional, organism-based; details: 3D7, Erythrocyte
Plasmodium falciparum [15] = assay: Resistance index, ratio of IC50 for antiplasmodial activity against sorbitol-synchronized ring stage 2-(1,1-difluoroethyl)-5-methyl-N-(4-(pentafluoro-l6-sulfaneyl)phenyl)-[1,2,4]triazolo[1,5-a]pyrimidin-7-amine resistant Plasmodium falciparum Dd2 infected in erythrocytes to IC50 for antiplasmodial activity against sorbitol-synchronized ring stage chloroquine sensitive Plasmodium falciparum 3D7 infected in erythrocytes; format: functional
Plasmodium falciparum [16] = assay: Resistance index, ratio of IC50 for antiplasmodial activity against sorbitol-synchronized ring stage chloroquine resistant Plasmodium falciparum K1 infected in erythrocytes to IC50 for antiplasmodial activity against sorbitol-synchronized ring stage chloroquine sensitive Plasmodium falciparum 3D7 infected in erythrocytes; format: functional
Plasmodium falciparum [17] = assay: Antiplasmodial activity against Plasmodium falciparum infected in erythrocytes assessed as induction of parasite death by measuring irreversible chromatin condensation with appearance of pyknotic nuclei at 300 nM measured after 24 hrs; format: functional, organism-based; details: Erythrocyte
[18] = Ratio of IC50 for Plasmodium falciparum infected in erythrocytes measured after 24 hrs by SYBR green dye based fluorescence assay to IC50 for Plasmodium falciparum infected in erythrocytes measured after 72 hrs by SYBR green dye based fluorescence assay; format: functional, Erythrocyte
Plasmodium falciparum [19] = assay: Antiplasmodial activity against Plasmodium falciparum infected in erythrocytes assessed as reduction in parasite growth at 500 nM measured until 24 hrs; format: functional, organism-based; details: Erythrocyte

Compound | CC50 at 72 h [2] [nM] | selectivity ratio [7] | IC50 (Plasmodium falciparum [9]) [nM] | inhibition [10] [%] | inhibition at 10 µM (Plasmodium falciparum [11]) [%] | Activity [12] [%] | Percent inhibition of ookinete formation at 10 µM (Plasmodium berghei) [%] | IC50 (Plasmodium falciparum [13]) [nM] | also measured
Cc1cc(NCCCCCCCNc2ccnc3cc(Cl)ccc23)n2nc(C)nc2n1 | 17000 | 142 | 210 | < 50 | 85.8 | 78.8 | 0 | 120 | Ratio IC50 (Plasmodium falciparum [1]): 1.4; Ratio IC50 (Plasmodium falciparum [3]): 1.5; IC50 (Plasmodium falciparum [4]): 150 nM; IC50 (Plasmodium falciparum [5]): 180 nM; IC50 (Plasmodium falciparum [6]): 170 nM; Ratio IC50 (Plasmodium falciparum [8]): 0.4; IC50 (Plasmodium falciparum [14]): 50 nM; Ratio IC50 (Plasmodium falciparum [15]): 1.3
Cc1cc(N2CCN(c3ccnc4cc(Cl)ccc34)CC2)n2nc(C(F)(F)F)nc2n1 | – | – | – | < 50 | – | 105 | – | 7000 | –
Cc1cc(NCCCNc2ccnc3cc(Cl)ccc23)n2nc(C)nc2n1 | 110000 | 131 | 640 | < 50 | 50 | 97 | 23 | 840 | Ratio IC50 (Plasmodium falciparum [16]): 0.8
Cc1cc(NCCCNc2ccnc3cc(Cl)ccc23)n2nc(C(F)(F)F)nc2n1 | 113000 | 168 | 3000 | < 50 | – | 51.5 | – | 673 | Ratio IC50 (Plasmodium falciparum [16]): 4.5
CCN(CC)CCCC(C)Nc1ccnc2cc(Cl)ccc12 (centres undefined) [CHLOROQUINE] | 398000 | – | – | – | – | – | – | – | –
Cc1cc(NCCCCNc2ccnc3cc(Cl)ccc23)n2nc(C)cc2n1 | > 100000 | > 1570 | – | < 50 | – | 89.4 | 22 | – | –
Cc1cc(NCCCCCCCNc2ccnc3cc(Cl)ccc23)n2ncnc2n1 | 16000 | 146 | 300 | < 50 | 2 | 73.5 | 30 | 110 | Ratio IC50 (Plasmodium falciparum [1]): 2.9; Ratio IC50 (Plasmodium falciparum [3]): 2.2; IC50 (Plasmodium falciparum [4]): 230 nM; IC50 (Plasmodium falciparum [5]): 200 nM; IC50 (Plasmodium falciparum [6]): 320 nM; Ratio IC50 (Plasmodium falciparum [8]): 1.1; IC50 (Plasmodium falciparum [14]): 120 nM; Ratio IC50 (Plasmodium falciparum [15]): 2.1
Cc1cc(Nc2ccc(S(F)(F)(F)(F)F)cc2)n2nc(C(C)(F)F)nc2n1 [DSM-265] | – | – | – | – | – | < 10 | – | 4 | IC50 (Plasmodium falciparum [4]): 12 nM; Ratio IC50 (Plasmodium falciparum [15]): 3
C[C@H]1[C@H](OC(=O)CCC(=O)O)O[C@@H]2O[C@@]3(C)CC[C@H]4[C@H](C)CC[C@@H]1[C@@]24OO3 [ARTESUNATE] | – | – | – | – | – | – | – | – | Activity (Plasmodium falciparum [17]): Active; Ratio IC50 [18]: 1.04
Cc1cc(NCCCCNc2ccnc3cc(Cl)ccc23)n2nc(C)nc2n1 | > 25000 | > 100 | – | < 50 | – | 92 | 0 | – | –
COc1cc(NC(C)CCCN)c2ncccc2c1 (centres undefined) [PRIMAQUINE] | – | – | – | – | 86 | – | – | – | –
CCc1nc(N)nc(N)c1-c1ccc(Cl)cc1 [PYRIMETHAMINE] | – | – | – | – | – | – | – | – | Activity (Plasmodium falciparum [19]): inactive; Ratio IC50 [18]: 3
Cc1cc(N2CCN(c3ccnc4cc(Cl)ccc34)CC2)n2nc(C)nc2n1 | – | – | – | < 50 | – | 93 | – | > 10000 | –
Cc1cc(N2CCN(c3ccnc4cc(Cl)ccc34)CC2)n2nc(C)cc2n1 | – | – | – | < 50 | – | 108 | – | 4400 | –
Cc1cc(NCCCCNc2ccnc3cc(Cl)ccc23)n2nc(C(F)(F)F)nc2n1 | > 25000 | > 81 | 300 | < 50 | 43 | 80.8 | 42 | 310 | Ratio IC50 (Plasmodium falciparum [16]): 1
O=C1C(O)=C([C@H]2CC[C@H](c3ccc(Cl)cc3)CC2)C(=O)c2ccccc21 [ATOVAQUONE] | – | – | – | – | – | – | 78 | 1 | IC50 (Plasmodium falciparum [5]): > 1000 nM
